For nine compounds, TGI results are on record in PubChem BioAssay (NCI).

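All cell lines were grown in 96-well plates and treated with compound for 48 hours. At the TGI there is no net growth.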 A value given as a limit tells only on which side of the number the result lay.

Experiment in all cases: growth of human tumour cells (NCI), 48 h
The test system of assay [1] is MDA-MB-435.
The subject of assay [2] is SF-268 CNS.
Assay [3] has as its system UACC-62 melanoma.
For assay [4], the system named is SNB-75 CNS.
Assay [5] concerns BT-549 breast.
Assay [6] concerns COLO 205 colon.
The subject of assay [7] is M14 melanoma.
Assay [8] deals with OVCAR-3 ovarian.
In assay [9] the test system is UO-31 renal.
Assay [10] deals with SNB-19 CNS.
Assay [11] concerns SK-MEL-2 melanoma.
The test system of assay [12] is CCRF-CEM leukemia.
Assay [13] deals with SK-MEL-28 melanoma.
The test system of assay [14] is SF-295 CNS.
In assay [15] the test system is SF-539 CNS.
The test system of assay [16] is NCI-H23 lung.
Assay [17] deals with IGROV1 ovarian.
The test system of assay [18] is HT29 colon.
The subject of assay [19] is MCF7 breast.

In the case of `O=c1oc2cc(O)ccc2c(O)c1C(c1ccc2ccccc2c1)c1c(O)c2ccc(O)cc2oc1=O`, the TGI in [1] was more than 100 µM; in assay [2], 33.5 µM; in [3], more than 100 µM; in assay [4], 37.7 µM; in [5], more than 100 µM; in [6] it was more than 100 µM. Further, the TGI in assay [7] was more than 100 µM; in assay [8], more than 100 µM; in assay [9] it was 31.7 µM; in assay [10] it was 49.3 µM; in assay [11], more than 100 µM; in assay [12] it was more than 100 µM. Also, the TGI in assay [13], in assay [14], in assay [15], in assay [16], in assay [17] and in assay [18] was more than 100 µM each time. For the same compound, in assay [19], the TGI was more than 100 µM.
`SCc1ccc(-c2ccc(CS)cc2)cc1`: the TGI turned out to be 22.8 µM in assay [1]; 10.3 µM in [2]; 41.2 µM in assay [3]; 28.1 µM in assay [4]; 6.47 µM in [5]; 37.4 µM in [6]. In addition, the TGI stood at 29.8 µM in assay [7]; 32.2 µM in assay [8]; 37.8 µM in [9]; 36.4 µM in [10]; 41.5 µM in assay [11]; 10.7 µM in assay [12]. Moreover, the TGI turned out to be 24.3 µM in [13]; 24.9 µM in assay [14]; 33.5 µM in assay [15]; 31.7 µM in assay [16]; 32.5 µM in assay [17]; 69.8 µM in assay [18]. Also, in assay [19], the TGI turned out to be 29.3 µM.
With `CC(=O)O[C@H]1C[C@H]2[C@@H]([C@H](OC(C)=O)C[C@@H]3CC4(CC[C@@]32C)OOC2(CCCCC2)OO4)[C@@H]2CC[C@H]([C@H](C)CCC(N)=O)[C@@]12C`, the TGI in assay [1] amounted to 3.27 µM; in assay [2] it was 3.47 µM; in assay [3], 6.31 µM; in assay [4] it was 4.89 µM; in [5], 4.86 µM; in assay [6], 3.68 µM. Further, the TGI in [7] is 9.67 µM; in assay [8], 3.17 µM; in [9], 0.193 µM; in [10], 20.1 µM; in assay [11] it was 4.48 µM; in [12] it was 3.13 µM. Further, the TGI in assay [13] turned out to be 24.7 µM; in [14], 9.66 µM; in assay [15], 10.7 µM; in assay [16], 2.83 µM; in assay [17], 0.474 µM; in [18], 14.3 µM. For the same compound, the TGI in assay [19] turned out to be 9.29 µM.
In the case of `Cc1c2ccccc2c(CSC(=N)N)c2ccccc12`, the TGI in [1] was determined as 0.44 µM; in assay [2] it was 1.33 µM; in assay [3], 0.408 µM; in assay [4], 0.445 µM; in [5], 3.72 µM; in [6], 0.37 µM. Also, the TGI in assay [7] was found to be 0.537 µM; in assay [8], 2.73 µM; in [9], 0.511 µM; in assay [10] it was 1.39 µM; in assay [11], 0.375 µM; in [12] it was 0.0588 µM. In addition, the TGI in assay [13] came out at 0.809 µM; in [14], 2.29 µM; in [15], 0.419 µM; in assay [16], 0.272 µM; in assay [17] it was 2.36 µM; in [18] it was 1.05 µM. Moreover, in [19], the TGI was determined as 0.518 µM.
As for `c1cc2c(cc1NC1=NCCO1)CCCC2`, the TGI in assay [1] turned out to be 4.1 µM; in [2], 25 µM; in [3], 16.5 µM; in [4], 35.3 µM; in [5] it was 75.7 µM; in assay [6], 3.8 µM. Besides, the TGI was 12.2 µM in assay [7]; 16.8 µM in assay [8]; 51.8 µM in assay [9]; more than 84.2 µM in assay [10]; 11.4 µM in assay [11]; more than 26.7 µM in assay [12]. For the same compound, the TGI in [13] is 27.2 µM; in assay [14] it was 25.6 µM; in assay [15], 6.25 µM; in assay [16], 16 µM; in assay [17] it was 23.5 µM; in assay [18], 7.28 µM. The TGI in assay [19] turned out to be 41.5 µM.
`Cn1c(=O)c2c(nc(N3CCOCC3)n2CCCNCC(O)c2ccc(O)c(O)c2)n(C)c1=O` (stereo unspecified): the TGI in assay [1], in assay [2], in [3], in [4], in [5] and in assay [6] was more than 100 µM in each case. Also, the TGI in assay [7], in assay [8], in [9], in [10], in [11] and in assay [12] was more than 100 µM in each case. For the same compound, the TGI in [13], in assay [14], in assay [15], in [16], in assay [17] and in assay [18] was more than 100 µM throughout. This compound had a TGI in assay [19] of more than 100 µM.
Consider `CSc1ccc(/C=C/C(=O)c2nc3ccccc3[nH]2)cc1`, for which the TGI was 35.8 µM in assay [1]; 93.6 µM in [2]; 36.2 µM in [3]; 43.8 µM in [4]; 48.4 µM in [5]; 96 µM in [6]. For the same compound, the TGI is 36.8 µM in [7]; 40.5 µM in assay [8]; 19.9 µM in assay [9]; 49.4 µM in [10]; 37.7 µM in assay [11]; more than 100 µM in [12]. For the same compound, the TGI in assay [13] is more than 100 µM; in [14], more than 100 µM; in assay [15], more than 100 µM; in assay [16], 89.5 µM; in [17] it was more than 100 µM; in [18] it was 46.2 µM. Further, the TGI in assay [19] was 8.97 µM.
On to `O=C1CC2(CCN(CC3COc4ccccc4O3)CC2)C(=O)N1N1CCCCCC1` (stereo unspecified), for which the TGI in [1], in assay [2], in assay [3], in [4], in assay [5] and in assay [6] was more than 100 µM throughout. The TGI in [7], in [8], in [9], in assay [10], in [11] and in assay [12] was more than 100 µM in each case. The TGI was more than 100 µM in [13]; more than 100 µM in [14]; more than 100 µM in assay [15]; more than 100 µM in assay [16]; more than 100 µM in assay [17]; 47.6 µM in assay [18]. In addition, the TGI in [19] is more than 100 µM.
As for `Clc1ccc(-c2c3nc(c(-c4ccc(Cl)cc4)c4ccc([nH]4)c(-c4ccc(Cl)cc4)c4nc(c(-c5ccc(Cl)cc5)c5ccc2[nH]5)C=C4)C=C3)cc1`, the TGI in [1] is more than 100 µM; in [2] it was more than 100 µM; in [3] it was more than 100 µM; in assay [4], 63.4 µM; in [5] it was more than 100 µM; in assay [6], more than 100 µM. Moreover, the TGI in assay [7], in assay [8], in assay [9], in assay [10], in assay [11] and in assay [12] was more than 100 µM in each case. Also, the TGI in [13], in assay [14], in [15], in [16], in assay [17] and in assay [18] was more than 100 µM throughout. Besides, in assay [19], the TGI was more than 100 µM.
